Results reported in patent US20050118310A1, “Formulations of compounds derived from natural sources and their use with irradiation for food preservation” (priority 2001, published 2005).
Marks after values point to notes of the source that are not given here.

Assays:
S. typhi [1] = test: Irradiation sensitivity of S. typhi in chicken breast; format: cell-based, Salmonella typhi (ATCC 19430)
E. coli [2] = test: Irradiation sensitivity of E. coli in chicken breast; format: cell-based, Escherichia coli (ATCC 25922); conditions: trans-cinnamaldehyde 0.050%, thymol 0.038%, tetrasodium pyrophosphate 0.003%, carvacrol 0.029%
E. coli [3] = test: MIC (D10 %) of active compounds in ground beef, E. coli; format: cell-based, Escherichia coli (ATCC 25922); conditions: non-irradiated ground beef, 10^5 CFU/g, stored at 4° C. for 24 hours; % w/w or v/w
Protocol: (§1) Escherichia coli (ATCC 25922) and Salmonella typhi (ATCC 19430) were obtained from the American Type Culture Collection (Rockville, Md., USA) and maintained at −80° C. in Tryptic Soy Broth (TSB; Difco Laboratory, Detroit, Mich.) containing glycerol (10%; v/v). Before each experiment, stock cultures were subcultured through two consecutive 24 h growth cycles in TSB at 35° C. to obtain working cultures containing approximately 10^9 UCF/ml for E. coli and S. typhi.
(§2) Samples were homogenised for 2 min in sterile peptone water (0.1%) using a Lab-blender 400 stomacher (Laboratory Equipment, London, UK). From this mixture, serial dilutions were prepared and appropriate ones were pour-plated in tryptic soy agar (TSA) (Difco, Laboratories, Detroit, Mich., USA) and incubated at 35° C., 24 hours for the numeration of E. coli and S. typhi.
(§3) D10 deteriiination: The kinetics of bacteria destruction by irradiation with or without the active compounds and under different packaging conditions was evaluated by linear regression. Bacterial counts (log CFU/ml) were plotted against irradiation doses or compound concentrations and the D10 values were calculated using SigmaPlot program. Statistical analysis was done using SPSS program. The Duncan test was used with a probability of 0.05.
(§4) The MIC values for the active compounds were determined on the basis of their antibacterial effectiveness in meat. Concentrations retained were those to reduce by 1 log CFU the population of E. coli or S. typhi in ground beef. Ground beef samples weighing 200 g were contaminated with working cultures of E. coli or S. typhi to obtain a final concentration of 10^5 CFU/g. The ground beef samples containing micro-organisms was mixed during 3 minutes at medium speed in a 4L-conmmercial blender (Waring Products, New Hartford, Col., USA) and different concentrations of the active compounds were incorporated, followed by another 3 minutes period mixing. Sterile petri plates (60×15 mm) were filled with ground beef samples containing micro-organisms and different concentrations of active compounds in portion of 25 g each and stored at 4° C. for 24 hours.
(§5) In addition to the above compounds, minimal concentrations of different types of commercial Herbalox® and Duralox® required to reduce by 1 log the bacterial population of E. coli in ground beef were evaluated. […] However, an estimation of the minimal concentration was calculated using the slope of the curve.

S. typhi [4] = test: MIC (D10 %) of active compounds in ground beef, S. typhi; format: cell-based, Salmonella typhi (ATCC 19430); conditions: non-irradiated ground beef, 10^5 CFU/g, stored at 4° C. for 24 hours; % w/w or v/w
Protocol: as §1, §2, §3, §4, §5

[5] = test system: Six pathogenic and spoilage bacteria, commonly found in meat and meat products; test: MIC in artificial culture media (1 log reduction); format: cell-based
Protocol: The concentration ot each active compound added to the meat samples was based on results obtained in a previous experiment. These concentrations represent the minimum inhibitory concentrations (MIC) of the active compounds required to be present in artificial culture media in order to reduce by 1 log the number of bacteria in culture. Six pathogenic and spoilage bacteria, commonly found in meat and meat products, were tested. […] The concentration used for carnosine (1.0%) was selected from the literature (Sebranek, 1999). The concentrations of BHA (0.01%), BHT (0.01%), EDTA (100 ppm), and tetrasodium pyrophosphate (0.1%) corresponded to the concentrations recommended by the Canadian Food Inspection Agency (CFIA).
This value was detennined by testing six pathogenic and spoilage bacteria, commonly found in meat and meat products.

E. coli [6] = test: Irradiation sensitivity (D10) of E. coli in ground beef; format: cell-based, Escherichia coli (ATCC 25922)
S. typhi [7] = test: Irradiation sensitivity (D10) of S. typhi in ground beef; format: cell-based, Salmonella typhi (ATCC 19430)
[8] = ground beef, air, 4° C., lower concentration: thymol 0.1%, tannic acid 0.38%, rosemary 0.5%, BHT 0.01%, trans-cinnamaldehyde […], carvacrol […], thyme 0.2%, BHA 0.01%, nisin 625 UI/g, EDTA 100 ppm, tetrasodium pyrophosphate 0.1%, carnosine 1.0%, ascorbic acid 0.5%
[9] = vs control, negative = protective effect, ground beef, air, 4° C., thymol 0.1%, tannic acid 0.38%, rosemary 0.5%, BHT 0.01%, trans-cinnamaldehyde […], carvacrol […], thyme 0.2%, BHA 0.01%, nisin 625 UI/g, EDTA 100 ppm, tetrasodium pyrophosphate 0.1%, carnosine 1.0%, ascorbic acid 0.5%
[10] = ground beef, air, 4° C., lower concentration: tannic acid 0.38%, nisin 625 UI/g, EDTA 100 ppm, carvacrol […], tetrasodium pyrophosphate 0.1%, trans-cinnamaldehyde […], thymol 0.1%, thyme 0.2%, BHT 0.01%, BHA 0.01%, rosemary 0.5%, carnosine 1.0%, ascorbic acid 0.5%
[11] = vs control, ground beef, air, 4° C., tannic acid 0.38%, nisin 625 UI/g, EDTA 100 ppm, carvacrol […], tetrasodium pyrophosphate 0.1%, trans-cinnamaldehyde […], thymol 0.1%, thyme 0.2%, BHT 0.01%, BHA 0.01%, rosemary 0.5%, carnosine 1.0%, ascorbic acid 0.5%

Compound | D10 (%): minimal concentration of active compound required to reduce E. coli population by 1 log in ground beef (E. coli [3]) | D10 (%): minimal concentration of active compound required to reduce S. typhi population by 1 log in ground beef (S. typhi [4]) | D10(kGy) (E. coli [6]; [8]) | Increase in Sensitivity (E. coli [6]; [9]) [%] | D10(kGy) (S. typhi [7]; [10]) | Increase in Sensitivity (S. typhi [7]; [11]) [%] | further results
O=P([O-])([O-])OP(=O)([O-])[O-].[Na+].[Na+].[Na+].[Na+] [Tetrasodium pyrophosphate, tetrasodium pyrophosphate] |  |  |  |  |  |  | D10(kGy) (S. typhi [1]; chicken breast, 4° C., trans-cinnamaldehyde 0.030%, tetrasodium pyrophosphate 0.003%, carvacrol 0.038%, thymol […]): 0.520 ± 0.030^b kGy; factor by which the effect was reduced in the chicken breast (S. typhi [1]; concentration of 1/30 of the MIC value in ground beef, compared with ground beef at MIC): 1.5; irradiation dose necessary to completely eliminate S. typhi from the chicken breast (S. typhi [1]; trans-cinnamaldehyde 0.030%, tetrasodium pyrophosphate 0.003%, carvacrol 0.038%, thymol […]): 2.6 kGy; Increase in Sensitivity (S. typhi [1]; vs control, chicken breast, trans-cinnamaldehyde 0.030%, tetrasodium pyrophosphate 0.003%, carvacrol 0.038%, thymol […]): 19.1%; D10(kGy) (E. coli [2]; chicken breast, 4° C.): 0.141 ± 0.012^bc kGy; irradiation dose necessary to completely eliminate E. coli from the chicken breast (E. coli [2]): 0.75 kGy; Increase in Sensitivity (E. coli [2]; vs control, chicken breast): 2.7%
O=C(OC[C@H]1O[C@@H](OC(=O)c2cc(O)c(O)c(OC(=O)c3cc(O)c(O)c(O)c3)c2)[C@H](OC(=O)c2cc(O)c(O)c(OC(=O)c3cc(O)c(O)c(O)c3)c2)[C@@H](OC(=O)c2cc(O)c(O)c(OC(=O)c3cc(O)c(O)c(O)c3)c2)[C@@H]1OC(=O)c1cc(O)c(O)c(OC(=O)c2cc(O)c(O)c(O)c2)c1)c1cc(O)c(O)c(OC(=O)c2cc(O)c(O)c(O)c2)c1 [Tannic acid, tannic acid] | 11.15 ± 2.04^c % | 21.18 ± 2.07^d % |  |  |  |  | 
O=C1O[C@H]([C@@H](O)CO)C(O)=C1O [Ascorbic acid] | 2.71 ± 0.26^b % | 1.83 ± 0.06^ab % |  |  |  |  | Mean values of MIC (concentration required in artificial culture media to reduce by 1 log the number of bacteria) [5]: 0.5%
nisin |  |  | 0.120 ± 0.0089^efg kGy | 4.8 | 0.420 ± 0.0040^hi kGy | 20.2 | 
O=C(O)CN(CCN(CC(=O)O)CC(=O)O)CC(=O)O [EDTA] |  |  |  |  |  |  | D10(kGy) (E. coli [6]): 0.127 ± 0.0033^gh kGy; Increase in Sensitivity (E. coli [6]): −0.8%; D10(kGy) (S. typhi [7]): 0.419 ± 0.0198^hi kGy; Increase in Sensitivity (S. typhi [7]): 20.3%
COc1ccc(O)c(C(C)(C)C)c1 [BHA, butylated hydroxyanisole] |  |  | 0.117 ± 0.0026^ef kGy | 7.1 | 0.407 ± 0.0123^h kGy | 22.6 | 
